Common to all, as to experiment: MIC, broth microdilution
Experiment [1] deals with S. aureus. Format: cell-based, Staphylococcus aureus. On the procedure: (§1) MICs were determined by the microdilution method according to the Clinical and Laboratory Standards Institute guidelines. […] Finally, the 96-well plates were incubated at 37 °C for 16–20 h to observe and record the results. […] The assay for MICs was replicated at least three times.
Experiment [2] deals with H. influenzae. Format: cell-based, Haemophilus influenzae. On the procedure:
as §1

Experiment [3] concerns S. pneumoniae. Format: cell-based, Streptococcus pneumoniae. The method, then: as §1
Experiment [4] concerns S. pyogenes. Format: cell-based, Streptococcus pyogenes. The note with it: S. pyogenes 12-206, c-ermTR. On the procedure: as §1
The mark [5] stands for this setting: Staphylococcus aureus, S. aureus 15B196, c-ermB, read-out: MIC.
Where [6] appears, read: Staphylococcus aureus, S. aureus PU32, i-ermA, read-out: MIC.
Where [7] appears, read: Haemophilus influenzae, ATCC49247, H. influenzae ATCC49247, Azi-S, read-out: MIC.
Setting [8] is: Streptococcus pneumoniae, ATCC49619, S. pneumoniae ATCC49619, Ery-S, read-out: MIC.
Setting [9] is: Streptococcus pneumoniae, S. pneumoniae 07P390, c-ermB, read-out: MIC.
Where [10] appears, read: Streptococcus pneumoniae, S. pneumoniae PU09, mef, read-out: MIC.
Where [11] appears, read: Streptococcus pyogenes, read-out: MIC.

Converted amounts (≈) assume the structure as drawn. Where two headings read alike, the source gives them in different places.

Consider `CC[C@H]1OC(=O)[C@H](C)[C@@H](OC(=O)NCCCCCCCCCCc2ccc3c(c2)c(=O)c(C(N)=O)cn3C2CC2)[C@H](C)[C@@H](O[C@@H]2O[C@H](C)C[C@H](N(C)C)[C@H]2O)[C@](C)(OC)C[C@@H](C)C(=NOC)[C@H](C)[C@H]2OC(=O)O[C@@]21C` [64b], for which the MIC in experiment [1] (S. aureus 15B196, c-ermB) is over 256 µg/mL; in experiment [1] (S. aureus PU32, i-ermA) it was 64 µg/mL (≈ 60.7 µM); in experiment [2] (H. influenzae ATCC49247, Azi-S), over 256 µg/mL; in experiment [3] (S. pneumoniae 07P390, c-ermB), 16 µg/mL (≈ 15.2 µM); in experiment [3] (S. pneumoniae ATCC49619, Ery-S), 4 µg/mL (≈ 3.79 µM); in experiment [3] (S. pneumoniae PU09, mef) it was 8 µg/mL (≈ 7.59 µM). In addition, the MIC in experiment [4] amounted to 16 µg/mL (≈ 15.2 µM).

With `CC[C@H]1OC(=O)[C@H](C)[C@@H](OC(=O)NCCOCCC#Cc2ccc3c(=O)c(C(=O)O)cn(C4CC4)c3c2)[C@H](C)[C@@H](O[C@@H]2O[C@H](C)C[C@H](N(C)C)[C@H]2O)[C@](C)(OC)C[C@@H](C)C(=NOC)[C@H](C)[C@H]2OC(=O)O[C@@]21C` [70c], the MIC in experiment [1] (S. aureus 15B196, c-ermB) was 128 µg/mL (≈ 127 µM); in experiment [1] (S. aureus PU32, i-ermA) it was 4 µg/mL (≈ 3.96 µM); in experiment [2] (H. influenzae ATCC49247, Azi-S), 32 µg/mL (≈ 31.6 µM); in experiment [3] (S. pneumoniae 07P390, c-ermB) it was 0.25 µg/mL (≈ 0.247 µM); in experiment [3] (S. pneumoniae ATCC49619, Ery-S) it was at most 0.008 µg/mL; in experiment [3] (S. pneumoniae PU09, mef), 0.06 µg/mL (≈ 0.0593 µM). The molecule also returned an MIC in experiment [4] of 2 µg/mL (≈ 1.98 µM).

On to `CCC1OC(=O)C(C)C(OC(=O)NCCOCCCC#Cc2ccc3c(=O)c(C(=O)O)cn(C4CC4)c3c2)C(C)C(OC2OC(C)CC(N(C)C)C2O)C(C)(OC)CC(C)C(=NOC)C(C)C2OC(=O)OC12C` (stereo not shown) [71c], for which the MIC was 256 µg/mL (≈ 250 µM) in experiment [1] (setting [5]); 4 µg/mL (≈ 3.9 µM) in experiment [1] (setting [6]); 32 µg/mL (≈ 31.2 µM) in experiment [2] (setting [7]); at most 0.008 µg/mL in experiment [3] (setting [8]); 0.12 µg/mL (≈ 0.117 µM) in experiment [3] (setting [9]); at most 0.008 µg/mL in experiment [3] (setting [10]). The MIC in experiment [4] (setting [11]) was 2 µg/mL (≈ 1.95 µM).

`CCC1OC(=O)C(C)C(OC(=O)NCCCOCCC#Cc2ccc3c(=O)c(C(=O)O)cn(C4CC4)c3c2)C(C)C(OC2OC(C)CC(N(C)C)C2O)C(C)(OC)CC(C)C(=NOC)C(C)C2OC(=O)OC12C` (stereo not shown) [72c]: the MIC in experiment [1] (setting [5]) is 32 µg/mL (≈ 31.2 µM); in experiment [1] (setting [6]), 2 µg/mL (≈ 1.95 µM); in experiment [2] (setting [7]), 16 µg/mL (≈ 15.6 µM); in experiment [3] (setting [8]), at most 0.008 µg/mL; in experiment [3] (setting [9]), 0.12 µg/mL (≈ 0.117 µM); in experiment [3] (setting [10]) it was at most 0.008 µg/mL. For the same molecule, in experiment [4] (setting [11]), the MIC worked out at 1 µg/mL (≈ 0.975 µM).

As for `CC[C@H]1OC(=O)[C@H](C)[C@@H](OC(=O)NCCNCCC#Cc2ccc3c(=O)c(C(=O)O)cn(C4CC4)c3c2)[C@H](C)[C@@H](O[C@@H]2O[C@H](C)C[C@H](N(C)C)[C@H]2O)[C@](C)(OC)C[C@@H](C)C(=NOC)[C@H](C)[C@H]2OC(=O)O[C@@]21C` [74c], the MIC in experiment [1] (S. aureus 15B196, c-ermB) was determined as 256 µg/mL (≈ 253 µM); in experiment [1] (S. aureus PU32, i-ermA) it was 8 µg/mL (≈ 7.92 µM); in experiment [2] (H. influenzae ATCC49247, Azi-S), 16 µg/mL (≈ 15.8 µM); in experiment [3] (S. pneumoniae 07P390, c-ermB), 0.5 µg/mL (≈ 0.495 µM); in experiment [3] (S. pneumoniae ATCC49619, Ery-S), 0.016 µg/mL (≈ 0.0158 µM); in experiment [3] (S. pneumoniae PU09, mef), 0.12 µg/mL (≈ 0.119 µM). The molecule also displayed an MIC in experiment [4] of 2 µg/mL (≈ 1.98 µM).

Regarding `CC[C@H]1OC(=O)[C@H](C)[C@@H](OC(=O)NCCCCCC#Cc2ccc3c(=O)c(C(=O)O)cn(C4CC4)c3c2)[C@H](C)[C@@H](O[C@@H]2O[C@H](C)C[C@H](N(C)C)[C@H]2O)[C@](C)(OC)C[C@@H](C)C(=O)[C@H](C)[C@H]2OC(=O)O[C@@]21C` [79c], the MIC in experiment [1] (setting [5]) stood at 64 µg/mL (≈ 65.3 µM); in experiment [1] (setting [6]) it was 4 µg/mL (≈ 4.08 µM); in experiment [2] (setting [7]), 16 µg/mL (≈ 16.3 µM); in experiment [3] (setting [8]), 0.016 µg/mL (≈ 0.0163 µM); in experiment [3] (setting [9]), 0.12 µg/mL (≈ 0.122 µM); in experiment [3] (setting [10]), 0.06 µg/mL (≈ 0.0612 µM). The MIC in experiment [4] (setting [11]) was determined as 2 µg/mL (≈ 2.04 µM).

Consider `CC[C@H]1OC(=O)[C@H](C)[C@@H](OC(=O)NCCCCCC#Cc2ccc3c(=O)c(C(=O)O)cn(C4CC4)c3c2)[C@H](C)[C@@H](O[C@@H]2O[C@H](C)C[C@H](N(C)C)[C@H]2O)[C@](C)(OC)C[C@@H](C)C(=O)[C@H](C)[C@H]2NC(=O)O[C@@]21C` [87c], for which the MIC was 64 µg/mL (≈ 65.4 µM) in experiment [1] (setting [5]); 1 µg/mL (≈ 1.02 µM) in experiment [1] (setting [6]); 8 µg/mL (≈ 8.17 µM) in experiment [2] (setting [7]); at most 0.008 µg/mL in experiment [3] (setting [8]); 0.06 µg/mL (≈ 0.0613 µM) in experiment [3] (setting [9]); 0.03 µg/mL (≈ 0.0306 µM) in experiment [3] (setting [10]). Besides, the MIC in experiment [4] (setting [11]) is 1 µg/mL (≈ 1.02 µM).

The values are drawn from article PMC11239830, “Synthetic macrolides overcoming MLSBK-resistant pathogens” (Cell Discovery, 2024).
